The values below come from ChEMBL document CHEMBL1921748, “Renin inhibitors for the treatment of hypertension: design and optimization of a novel series of spirocyclic piperidines” (Bioorg Med Chem Lett, 2011).

In general, half-life refers to the time in which the quantity being followed falls by half. For orientation: bioavailability means dose-corrected exposure relative to a reference, in per cent. What is called CL/F is the apparent clearance, not corrected for the fraction that reaches the circulation. What is called Papp is a coefficient for how fast a substance crosses the barrier. What is called AUC is concentration integrated over time.

Data set [1] in a line: Half life in Sprague-Dawley rat at 0.3 mg/kg, po. Type of data set: ADME, organism-based. Further details: dose 0.3 mg/kg, route oral. Particulars: in vivo.
Data set [2] can be described thus: Oral bioavailability in Sprague-Dawley rat at 0.3 mg/kg. Type of data set: ADME, organism-based. The settings on record: in vivo.
The nature of data set [3]: Oral bioavailability in Sprague-Dawley rat at 30 mg/kg. Type of data set: ADME, organism-based. Particulars: in vivo.
Data set [4] can be described thus: Clearance in Sprague-Dawley rat at 0.3 mg/kg, po. Type of data set: ADME, organism-based. On the set-up: dose 0.3 mg/kg, route oral. The settings on record: in vivo.
Data set [5] is described as follows: Apparent permeability of the compound. Type of data set: ADME. The settings on record: not told.
In the next data set the test system is Rattus norvegicus. In words: Volume of distribution at steady state in Sprague-Dawley rat at 0.3 mg/kg, po. Type of data set: ADME, organism-based. Further details: dose 0.3 mg/kg, route oral. Particulars: in vivo.
Data set [6] can be described thus: Oral bioavailability in Sprague-Dawley rat at 3 mg/kg. Type of data set: ADME, organism-based. Particulars: in vivo.
A short description of data set [7]: Metabolic stability in human liver microsomes assessed as compound remaining at 1 uM after 30 mins in presence of NADPH. Type of data set: ADME, Microsome. Particulars: read-out: Stability.
Data set [8] in a line: Metabolic stability in Sprague-Dawley rat hepatocytes assessed as compound remaining at 10 uM after 2 hrs. Particulars: read-out: Stability. In kind it is ADME, cell-based, Hepatocyte.
A short description of data set [9]: Metabolic stability in rat liver microsomes assessed as compound remaining at 1 uM after 30 mins in presence of NADPH. Type of data set: ADME, Microsome. The settings on record: read-out: Stability. On the technique in general: Microsomes from liver hold many membrane-bound enzymes, among them those of drug oxidation.
The nature of a further data set: in vitro. The settings on record: human, liver microsomes.
Data set [10] in a line: Metabolic stability in dog liver microsomes assessed as compound remaining at 1 uM after 30 mins in presence of NADPH. In kind it is ADME, Canis lupus familiaris, Microsome. The settings on record: read-out: Stability.
Data set [11] in a line: Metabolic stability in rhesus monkey liver microsomes assessed as compound remaining at 1 uM after 30 mins in presence of NADPH. In kind it is ADME, Macaca mulatta, Microsome. The settings on record: read-out: Stability.
Data set [12] in a line: Volume of distribution at steady state in Sprague-Dawley rat at 3 mg/kg, po and 0.5 mg/kg, iv. Particulars: in vivo, read-out: Vdss. In kind it is ADME, organism-based.
Data set [13] in a line: Oral bioavailability in Beagle dog at 3 mg/kg. Type of data set: ADME, organism-based, Canis lupus familiaris. Particulars: in vivo.
Data set [14] in a line: Half life in Beagle dog at 3 mg/kg, po and 1 mg/kg, iv. Type of data set: ADME, organism-based, Canis lupus familiaris. The settings on record: in vivo.
A short description of data set [15]: Clearance in Sprague-Dawley rat at 3 mg/kg, po and 0.5 mg/kg, iv. In kind it is ADME, organism-based. The settings on record: in vivo.
A short description of data set [16]: AUC in rhesus monkey at 3 mg/kg, po. Type of data set: ADME, organism-based, Macaca mulatta. On the set-up: dose 3 mg/kg, route oral. The settings on record: plasma.
Data set [17] is described as follows: Half life in rhesus monkey at 3 mg/kg, po and 1 mg/kg, iv. In kind it is ADME, organism-based, Macaca mulatta. The settings on record: in vivo.
The nature of data set [18]: Volume of distribution at steady state in Beagle dog at 3 mg/kg, po and 1 mg/kg, iv. Particulars: in vivo, read-out: Vdss. In kind it is ADME, organism-based, Canis lupus familiaris.
Data set [19] in a line: Clearance in Beagle dog at 3 mg/kg, po and 1 mg/kg, iv. In kind it is ADME, organism-based, Canis lupus familiaris. The settings on record: in vivo.
Data set [20] can be described thus: AUC in Sprague-Dawley rat at 3 mg/kg, po. Type of data set: ADME, organism-based. On the set-up: dose 3 mg/kg, route oral. The settings on record: plasma.
Data set [21] is described as follows: Half life in Sprague-Dawley rat at 3 mg/kg, po and 0.5 mg/kg, iv. In kind it is ADME, organism-based. Particulars: in vivo.
A short description of data set [22]: Volume of distribution at steady state in rhesus monkey at 3 mg/kg, po and 1 mg/kg, iv. The settings on record: in vivo, read-out: Vdss. In kind it is ADME, organism-based, Macaca mulatta.
Data set [23] can be described thus: Oral bioavailability in rhesus monkey at 3 mg/kg. In kind it is ADME, organism-based, Macaca mulatta. Particulars: in vivo.
Data set [24] can be described thus: AUC in Beagle dog at 3 mg/kg, po. In kind it is ADME, organism-based, Canis lupus familiaris. On the set-up: dose 3 mg/kg, route oral. The settings on record: plasma.
Data set [25] is described as follows: Clearance in rhesus monkey at 3 mg/kg, po and 1 mg/kg, iv. In kind it is ADME, organism-based, Macaca mulatta. The settings on record: in vivo.

SMILES strings stand for the structures.

In the case of `COCCCc1cc(CN(C(=O)[C@H]2CNCC[C@]2(O)c2ccc(F)c(F)c2)C2CC2)cc(OCCOC)c1`, the half-life in data set [1] was 1.5 h. Further, the results for the bioavailability in data set [2], in data set [3] and in data set [6] were 17%, 18% and 29%, respectively. In addition, in [4], the apparent clearance (CL/F) turned out to be 2.16 L/h/kg. In data set [5], the Papp is 215 nm/s. This compound also displayed a Vdss with Rattus norvegicus of 5 L/kg.

For the compound `Cc1cccc(CN(C(=O)[C@H]2CNCC[C@@]23OCc2cc(F)c(F)cc23)C2CC2)c1C`, the remaining at 0.5 h, 1 µM in [7] came out at 1%; in data set [9], 0%. In [8], the remaining at 2 h, 10 µM was determined as 8%.

As to `O=C([C@H]1CNCC[C@@]12OCc1cc(F)c(F)cc12)N(Cc1cccc(C(F)(F)F)c1Cl)C1CC1`, in the data set “in vitro”, the remaining at 1 h, 10 µM is 50%.

In the case of `COCCCc1cc(CCCN2CCOCC2)c(Cl)c(CN(C(=O)[C@H]2CNCC[C@@]23OCc2cc(F)c(F)cc23)C2CC2)c1`, the remaining at 0.5 h, 1 µM was found to be 51% in [7], 43% in data set [10], 10% in [11] and 53% in data set [9].

As to `COCCCc1cc(CCCN2CCOCC2)c(Cl)c(CN(C(=O)[C@H]2CNCC[C@@]23OCc2cc(F)c(F)cc23)C2CC2)c1.Cl.Cl.Cl`, the figures for the Vd in [12], in [18] and in data set [22] were 24 L/kg, 73 L/kg and 45 L/kg, respectively. Besides, the bioavailability turned out to be 1% in data set [13], 23% in [6] and 1% in data set [23]. For the same compound, the half-life in data set [14] is 10 h; in data set [17], 5 h; in data set [21], 5.3 h. Also, the clearance amounted to 2.82 L/h/kg in data set [15], 4.38 L/h/kg in data set [19] and 3.96 L/h/kg in [25]. Further, the results for the exposure (AUC) in [16], in data set [20] and in [24] were 10 nM·h, 370 nM·h and 10 nM·h, respectively.
